Experimental data as given in patent US8623857B2, “N-phenyl imidazole carboxamide inhibitors of 3-phosphoinositide-dependent protein kinase-1” (Merck Sharp & Dohme Corp., priority 2010, dated 2014).

Target: T1, recombinant human PDK1 (Homo sapiens, UniProt O15530)
T1 construct: containing amino acids 51-556 of the human PDK1 enzyme; made in house; host or cells: Sf9 insect cells
T1 sequence (O15530 51-556): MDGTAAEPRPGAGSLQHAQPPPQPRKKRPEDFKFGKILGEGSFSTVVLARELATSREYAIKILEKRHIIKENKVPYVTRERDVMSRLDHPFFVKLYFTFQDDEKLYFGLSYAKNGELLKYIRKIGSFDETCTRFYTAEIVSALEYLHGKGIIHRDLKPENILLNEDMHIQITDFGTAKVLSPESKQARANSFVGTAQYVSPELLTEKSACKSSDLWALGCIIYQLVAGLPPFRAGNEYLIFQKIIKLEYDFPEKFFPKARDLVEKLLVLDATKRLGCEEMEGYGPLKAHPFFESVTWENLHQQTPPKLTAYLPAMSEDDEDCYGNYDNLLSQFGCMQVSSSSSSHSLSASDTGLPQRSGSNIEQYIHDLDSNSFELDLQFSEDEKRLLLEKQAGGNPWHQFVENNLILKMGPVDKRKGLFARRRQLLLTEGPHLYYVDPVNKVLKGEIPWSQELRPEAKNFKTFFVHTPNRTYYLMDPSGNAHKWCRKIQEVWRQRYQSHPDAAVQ
Assay: PDK1 IMAP fluorescence polarization assay (inhibition of peptide substrate phosphorylation)
Type: biochemical
Conditions: Table 6; 10 nM PDK1 enzyme, 100 nM peptide substrate, 100 nM PIFtide, 2.5 uM ATP, 1.5 hours

IC50 [nM]	Structure (SMILES)
251 to 1000	NCC1CCN(c2c(F)cccc2NC(=O)c2nc(-c3cc(C(F)(F)F)n[nH]3)c[nH]2)CC1 [Compound 48, N-[2-[4-(aminomethyl)-1-piperidinyl]-3-fluorophenyl]-4-[3-(trifluoromethyl)-1H-pyrazol-5-yl]-1H-imidazole-2-carboxamide]
51 to 250	Cc1nc(N)cc(-c2c[nH]c(C(=O)Nc3cccc(F)c3N3CCC(CN)CC3)n2)n1 [Compound 49, N-[2-[4-(aminomethyl)-1-piperidinyl]-3-fluorophenyl]-4-(6-amino-2-methyl-4-pyrimidinyl)-1H-imidazole-2-carboxamide]
251 to 1000	Cc1cc(-c2c[nH]c(C(=O)Nc3cccc(F)c3N3CCC(CN(C)C)CC3)n2)ccn1 [Compound 50, N-[2-[4-[(dimethylamino)methyl]-1-piperidinyl]-3-fluorophenyl]-4-(2-methyl-4-pyridinyl)-1H-imidazole-2-carboxamide]
251 to 1000	NCC1CCN(c2ccc(-c3cn[nH]c3)cc2NC(=O)c2nc(-c3cn[nH]c3)c[nH]2)CC1 [Compound 51, N-[2-[4-(aminomethyl)-1-piperidinyl]-5-(1H-pyrazol-4-yl)phenyl]-4-(1H-pyrazol-4-yl)-1H-imidazole-2-carboxamide]
51 to 250	CCC1(CN)CCN(c2c(F)cccc2NC(=O)c2nc(-c3ccnc(C)c3)c[nH]2)CC1 [Compound 52, N-[2-[4-(aminomethyl)-4-ethyl-1-piperidinyl]-3-fluorophenyl]-4-(2-methyl-4-pyridinyl)-1H-imidazole-2-carboxamide]
1 to 50	NCC1CCN(c2c(F)cccc2NC(=O)c2nc(-c3cn[nH]c3)c[nH]2)CC1 [Compound 53, N-[2-[4-(aminomethyl)-1-piperidinyl]-3-fluorophenyl]-4-(1H-pyrazol-4-yl)-1H-imidazole-2-carboxamide]
1000 to 5000	Cc1cc(-c2c[nH]c(C(=O)Nc3cccc(F)c3N3CC4CCC(C3)N4)n2)ccn1 [Compound 54, N-[2-(3,8-diazabicyclo[3.2.1]oct-3-yl)-3-fluorophenyl]-4-(2-methyl-4-pyridinyl)-1H-imidazole-2-carboxamide]
51 to 250	Cc1cc(-c2c[nH]c(C(=O)Nc3cccc(F)c3N3CCC(C)(CN)CC3)n2)ccn1 [Compound 55, N-[2-[4-(aminomethyl)-4-methyl-1-piperidinyl]-3-fluorophenyl]-4-(2-methyl-4-pyridinyl)-1H-imidazole-2-carboxamide]
51 to 250	COC(=O)c1cccc(-c2c[nH]c(C(=O)Nc3cccc(F)c3N3CCC(CN)CC3)n2)c1 [Compound 56, methyl 3-[2-[[[2-[4-(aminomethyl)-1-piperidinyl]-3-fluorophenyl]amino]carbonyl]-1H-imidazol-4-yl]benzoate]
251 to 1000	CNCC1CCN(c2c(F)cccc2NC(=O)c2nc(-c3ccnc(C)c3)c[nH]2)CC1 [Compound 57, N-[3-fluoro-2-[4-[(methylamino)methyl]-1-piperidinyl]phenyl]-4-(2-methyl-4-pyridinyl)-1H-imidazole-2-carboxamide]
1000 to 5000	Cc1cc(-c2c[nH]c(C(=O)Nc3cccc(F)c3N3CC4CNCC4C3)n2)ccn1 (stereo not shown) [Compound 58, N-[3-fluoro-2-(hexahydropyrrolo[3,4-c]pyrrol-2(1H)-yl)phenyl]-4-(2-methyl-4-pyridinyl)-1H-imidazole-2-carboxamide]
1000 to 5000	CNC(=O)C1CCN(c2c(F)cccc2NC(=O)c2nc(-c3ccnc(C)c3)c[nH]2)CC1 [Compound 59, 1-[2-fluoro-6-[[[4-(2-methyl-4-pyridinyl)-1H-imidazol-2-yl]carbonyl]amino]phenyl]-N-methyl-4-piperidinecarboxamide]
1000 to 5000	CCNC(=O)C1CCN(c2c(F)cccc2NC(=O)c2nc(-c3ccnc(C)c3)c[nH]2)CC1 [Compound 60, N-ethyl-1-[2-fluoro-6-[[[4-(2-methyl-4-pyridinyl)-1H-imidazol-2-yl]carbonyl]amino]phenyl]-4-piperidinecarboxamide]
1000 to 5000	Cc1cc(-c2c[nH]c(C(=O)Nc3cccc(F)c3N3CCC(C(=O)N(C)C)CC3)n2)ccn1 [Compound 61, 1-[2-fluoro-6-[[[4-(2-methyl-4-pyridinyl)-1H-imidazol-2-yl]carbonyl]amino]phenyl]-N,N-dimethyl-4-piperidinecarboxamide]
1000 to 5000	Cc1cc(-c2c[nH]c(C(=O)Nc3cccc(F)c3N3CCC(C(=O)NCC(O)C(F)(F)F)CC3)n2)ccn1 (stereo not shown) [Compound 62, 1-[2-fluoro-6-[[[4-(2-methyl-4-pyridinyl)-1H-imidazol-2-yl]carbonyl]amino]phenyl]-N-(3,3,3-trifluoro-2-hydroxypropyl)-4-piperidinecarboxamide]
1000 to 5000	NCC1CCN(c2c(F)cccc2NC(=O)c2nc(-c3cncnc3)c[nH]2)CC1 [Compound 63, N-[2-[4-(aminomethyl)-1-piperidinyl]-3-fluorophenyl]-4-(5-pyrimidinyl)-1H-imidazole-2-carboxamide]
1000 to 5000	Cc1cc(-c2c[nH]c(C(=O)Nc3cccc(F)c3N3CCC(C(=O)N4CC[C@H](F)C4)CC3)n2)ccn1 [Compound 64, N-[3-fluoro-2-[4-[(3(S)-fluoro-1-pyrrolidinyl)carbonyl]-1-piperidinyl]phenyl]-4-(2-methyl-4-pyridinyl)-1H-imidazole-2-carboxamide]
1000 to 5000	Cc1cc(-c2c[nH]c(C(=O)Nc3cccc(F)c3N3CCC(C(=O)N[C@H](C)c4ccccc4)CC3)n2)ccn1 [Compound 65, 1-[2-fluoro-6-[[[4-(2-methyl-4-pyridinyl)-1H-imidazol-2-yl]carbonyl]amino]phenyl]-N-(1(R)-phenylethyl)-4-piperidinecarboxamide]
1000 to 5000	Cc1cc(-c2c[nH]c(C(=O)Nc3cccc(F)c3N3CCC(C(=O)N4CCC4)CC3)n2)ccn1 [Compound 66, N-[2-[4-(1-azetidinylcarbonyl)-1-piperidinyl]-3-fluorophenyl]-4-(2-methyl-4-pyridinyl)-1H-imidazole-2-carboxamide]
51 to 250	Cc1cc(-c2c[nH]c(C(=O)Nc3cccc(F)c3N3CCC(C(C)(C)N)CC3)n2)ccn1 [Compound 67, N-[2-[4-(1-amino-1-methylethyl)-1-piperidinyl]-3-fluorophenyl]-4-(2-methyl-4-pyridinyl)-1H-imidazole-2-carboxamide]
1 to 50	NCC1CCN(c2c(F)cccc2NC(=O)c2nc(-c3cc(C(N)=O)nc(O)n3)c[nH]2)CC1 [Compound 68, 6-[2-[[[2-[4-(aminomethyl)-1-piperidinyl]-3-fluorophenyl]amino]carbonyl]-1H-imidazol-4-yl]-2-hydroxy-4-pyrimidinecarboxamide]
1 to 50	NCC1CCN(c2c(F)cccc2NC(=O)c2nc(-c3cc(NCc4ccccc4)nc(N)n3)c[nH]2)CC1 [Compound 69, N-[2-[4-(aminomethyl)-1-piperidinyl]-3-fluorophenyl]-4-[2-amino-6-[(phenylmethyl)amino]-4-pyrimidinyl]-1H-imidazole-2-carboxamide]
51 to 250	NCC1CCN(c2c(F)cccc2NC(=O)c2nc(-c3cc(NCc4ccc(C(F)(F)F)cc4)nc(N)n3)c[nH]2)CC1 [Compound 70, N-[2-[4-(aminomethyl)-1-piperidinyl]-3-fluorophenyl]-4-[2-amino-6-[[[4-(trifluoromethyl)phenyl]methyl]amino]-4-pyrimidinyl]-1H-imidazole-2-carboxamide]
1 to 50	NCC1CCN(c2c(F)cccc2NC(=O)c2nc(-c3cc(NCc4ccc(F)cc4)nc(N)n3)c[nH]2)CC1 [Compound 71, 4-[2-amino-6-[[(4-fluorophenyl)methyl]amino]-4-pyrimidinyl]-N-[2-[4-(aminomethyl)-1-piperidinyl]-3-fluorophenyl]-1H-imidazole-2-carboxamide]
1 to 50	NCC1CCN(c2c(F)cccc2NC(=O)c2nc(-c3cc(N[C@@H](CO)c4ccccc4)nc(N)n3)c[nH]2)CC1 [Compound 72, 4-[2-amino-6-[[2-hydroxy-1(R)-phenylethyl]amino]-4-pyrimidinyl]-N-[2-[4-(aminomethyl)-1-piperidinyl]-3-fluorophenyl]-1H-imidazole-2-carboxamide]
51 to 250	NCC1CCN(c2c(F)cccc2NC(=O)c2nc(-c3cc(NCc4ccc(F)cc4)ncn3)c[nH]2)CC1 [Compound 73, N-[2-[4-(aminomethyl)-1-piperidinyl]-3-fluorophenyl]-4-[6-[[(4-fluorophenyl)methyl]amino]-4-pyrimidinyl]-1H-imidazole-2-carboxamide]
51 to 250	NCC1CCN(c2c(F)cccc2NC(=O)c2nc(-c3cc(NCc4ccc(F)c(F)c4)ncn3)c[nH]2)CC1 [Compound 74, N-[2-[4-(aminomethyl)-1-piperidinyl]-3-fluorophenyl]-4-[6-[[(3,4-difluorophenyl)methyl]amino]-4-pyrimidinyl]-1H-imidazole-2-carboxamide]
1 to 50	NCC1CCN(c2c(F)cccc2NC(=O)c2nc(-c3cc(NCc4ccc(F)c(F)c4)nc(N)n3)c[nH]2)CC1 [Compound 75, 4-[2-amino-6-[[(3,4-difluorophenyl)methyl]amino]-4-pyrimidinyl]-N-[2-[4-(aminomethyl)-1-piperidinyl]-3-fluorophenyl]-1H-imidazole-2-carboxamide]
